{"source": "patent US7371365B2", "about": "“Methods for detecting parenchymal plaques in vivo” (Mayo Foundation for Medical Education and Research, priority 2000, dated 2008)", "key": {"β-amyloid plaques": {"system": "β-amyloid plaques", "test": "MRI (7 Tesla, T2W/T1W) of post-mortem brain with thioflavin S histologic correlation after IV injection of probe in mice", "format": "in vivo, APP-PS1 transgenic mice", "details": "for T1 plaque enhancement on T1W images / accelerated T2 relaxation on T2W images: APP-PS1 transgenic mouse, four hours"}, "[1]": {"system": "amyloid deposits in AD temporal lobe cortex sections", "test": "Labeling of amyloid deposits in vitro in AD temporal lobe cortex sections (film and emulsion autoradiography)", "format": "binding, human", "details": "for specificity of binding for type of amyloid deposit: AD temporal lobe cortex sections in vitro", "protocol": "The sections were washed with TBS, pH 7.0 four times and then rinsed briefly with distilled water twice. The sections were allowed to air dry overnight in a box with desiccant at 4° C.\nSections then underwent immunohistochemistry (IH) for amyloid using an anti-Aβ monoclonal mouse antibody (4G8, Senetek). Untreated sections were included as a positive control for antibody staining. After rehydrating with TBS, pH 7.6, the sections were fixed briefly with neutral-buffered, 10% formalin for 3 minutes. The sections were washed with TBS and then blocked with 1.5% normal horse serum in TBS for 30 minutes. The sections were incubated with the anti-Aβ primary antibody at a dilution of 1:1000 in 0.1% BSA/TBS overnight at 4° C. The primary antibody was then visualized using a Vectastain Elite ABC, immunoperoxidase kit with diaminobenzidine (DAB) as a substrate according to the instructions (Vector Laboratories). The sections were allowed to air dry overnight in a box with desiccant at 4° C.\nFIGS. 2A-2B are the film autoradiographs. Note the presence of punctate areas of exposed film located predominantly in the regions corresponding to gray matter. This is similar to the distribution of amyloid deposits seen following IH of the tissue sections. It was possible to overlay the two for direct correspondence under the microscope.\nIn order to definitively correlate the IH with the iodinated peptide by colocalization, the sections were next dipped in an autoradiographic emulsion (Type NTB-3, Kodak). The slides were dipped in emulsion at 43° C. under Safelight illumination in a darkroom. The slides were chilled to solidify the emulsion and then allowed to air dry at room temperature for 3 hours in a light-proof box. The slides were exposed at 4° C. in a light-proof box with desiccant. The slides were developed with Dektol developer (Kodak) and fixed (Kodak) according to the instructions. The sections were dehydrated with successive changes of ethanol and xylene and then coverslipped with a xylene-based mounting media (CMS)."}, "[2]": {"system": "parenchymal amyloid deposits", "sequence (P05067 672-711 limits assumed)": "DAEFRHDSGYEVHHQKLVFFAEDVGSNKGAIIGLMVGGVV", "test": "Labeling of amyloid deposits in vivo after i.v. injection in APP, PS1 transgenic mice", "details": "200 μg i.v., four hours, emulsion autoradiography, PS1 transgenic mice 27 weeks of age", "text": "These mice develop amyloid deposits and behavioral deficits within 12 weeks of age. Hemizygous transgenic mice (Tg2576) expressing mutant human amyloid precursor protein (APP695) were mated with a second strain of hemizygous transgenic mice (M146L5.1) expressing mutant human presenilin 1 (PS1). Holcomb, L., et al., Nature Med. 4:97-100 (1998). The animals were genotyped for the expression of both transgenes by a dot blot method using a sample of mouse tail DNA. The mice were housed in a virus-free barrier facility under a 12-hour light/dark cycle, with ad lib access to food and water.\nAfter four hours, each animal was perfused with PBS and fixed with neutral-buffered, 10% formalin following an overdose with sodium pentobarbital (75 mg/kg, i.p.). After cryoprotecting in 10% and 30% sucrose in PBS, frozen sections of each brain were cut with a freezing microtome and then processed with anti-Aβ IH and emulsion autoradiography for the presence of radiolabeled amyloid deposits using the same methods described above for the human AD sections."}, "[3]": {"details": "in vivo, iv; cited from earlier work"}, "BBB [4]": {"system": "BBB", "details": "mouse, in vivo", "protocol": "PS and Vp Determination in Mice. […] Blood was sampled from the femoral artery at several intervals during the next 15 minutes. Whole blood was sampled directly, using heparinized micro-hematocrit capillary tubes and TCA extracted. The supernatant was separated from the pellet and both were counted in a gamma counter. The radioactivity in the pellet was expressed as a percentage of the total radioactivity found in both the pellet and supernatant. An aliquot of the peptide labeled with ^131I was then injected into the femoral vein 15 seconds prior to sacrifice of the animal to serve as a measure of residual plasma volume (Vp; μl/g). After collection of the final blood sample, the anesthetized animal was sacrificed. […] The permeability coefficient x surface area products (PS; 10^−6 ml/g/s) were then calculated using the Vp as a measure of residual plasma volume based on equations that have been discussed in detail elsewhere (Poduslo and Curran, supra (1996a); Poduslo and Curran, supra (1996b); Wengenack, et al., supra (1997); Poduslo, et al., supra (1998); Poduslo, et al., supra (2000); Poduslo, et al., supra (2001). Statistical evaluations of PS and Vp were performed using ANOVA followed by Bonferroni multiple comparisons."}, "[5]": {"system": "β-amyloid plaques in human AD brain sections", "test": "Labeling of AD amyloid plaques in vitro with putrescine- and gadolinium-labeled Aβ", "format": "binding", "details": "equal amounts of radioactivity", "text": "Labeling of AD Amyloid Plaques In Vitro with Putrescine- and Gadolinium-Labeled Aβ. […] The slides were dipped in emulsion, exposed, and developed according to the instructions. The sections were dehydrated with successive changes of ethanol and xylene and then coverslipped."}, "BBB [6]": {"system": "BBB", "format": "in vivo, Sprague-Dawley rats", "details": "rat", "protocol": "Poduslo, J. F. and Curran, G. L., Proc. Natl. Acad. Sci. USA 89:2218-2222 (1992); Poduslo, J. F. and Curran, G. L., Molec. Brain Res. 23:157-162 (1994); and Poduslo, J. F., et al., Proc. Natl. Acad. Sci. USA 9:5705-5709 (1994). Putrescine modification of synthetic human Aβ1-40 was performed by covalent linkage of the polyamine to carboxylic acid groups using carbodiimide at a pH of 6.7. Poduslo, J. F. and Curran, G. L., J. Neurochem. 66:1599-1609 (1996); and Poduslo, J. F. and Curran, G. L., J. Neurochem.\nPS and Vp values were determined in normal adult male Sprague-Dawley rats (400-450 g) obtained from Harlan. […] Blood (200 μl) was sampled from the brachial artery at several intervals during the next 15 minutes."}}, "data": [{"compound": "O=C([O-])CN(CCN(CC(=O)[O-])CC(=O)O)CCN(CC(=O)[O-])CC(=O)O.[Gd+3]", "note": "[Gd-DTPA, gadolinium diethylenetriaminepentaacetic acid, reference compound]", "values": [{"measurement": "T1 plaque enhancement on T1W images", "setting": "β-amyloid plaques; IV injection", "value": "No evidence of T1 plaque enhancement"}, {"measurement": "accelerated T2 relaxation on T2W images", "setting": "β-amyloid plaques; IV injection", "value": "expected focal areas of T2 acceleration that corresponded to plaques"}]}, {"compound": "NCCCCN", "note": "[putrescine, reference compound]", "values": [{"measurement": "effect of unbound putrescine on binding of iodinated peptide to amyloid deposits", "setting": "[1]; 10-fold excess unbound putrescine, 100 pM 125I-Aβ1-40 or 125I-PUT-Aβ1-40", "value": "no appreciable effect on binding of iodinated peptide"}]}, {"compound": "Aβ 1-40: synthetic human amyloid β peptide 1-40, native (unmodified); radioiodinated for the measurements [reference compound]", "values": [{"measurement": "specificity of binding for type of amyloid deposit", "setting": "[1]", "value": "specific for dense-core, neuritic-type amyloid deposits"}, {"measurement": "labeling of parenchymal amyloid deposits in vivo", "setting": "[2]", "value": "did not exhibit labeling of any parenchymal amyloid deposits"}, {"measurement": "amount of radiolabeled peptide present in PBS-perfused brain", "setting": "[3]", "value": 0.03, "unit": "%"}]}, {"compound": "Gd-Aβ: Aβ (1-40) with DTPA chelating arm at the amino terminus, chelated with gadolinium; Aβ to Gd 1:1", "values": [{"measurement": "effect of gadolinium labeling of Aβ on the PS value", "setting": "BBB [4]", "value": "decrease in the PS value in five of the six brain regions, however, this was of non-significant magnitude"}, {"measurement": "exposure time required for detection of plaque binding (emulsion autoradiography)", "setting": "[5]", "value": "nine"}, {"measurement": "T1 plaque enhancement on T1W images", "setting": "β-amyloid plaques; IV injection", "value": "no significant plaque enhancement"}, {"measurement": "accelerated T2 relaxation on T2W images", "setting": "β-amyloid plaques; IV injection", "value": "accelerated T2 relaxation was observed in plaques"}]}, {"compound": "PUT Aβ 1-40: synthetic human Aβ1-40 with putrescine covalently linked to carboxylic acid groups using carbodiimide; radioiodinated for the measurements", "values": [{"measurement": "increase of permeability at the blood brain barrier by putrescine modification", "setting": "BBB [6]", "value": "two-fold"}, {"measurement": "specificity of binding for type of amyloid deposit", "setting": "[1]", "value": "specific for dense-core, neuritic-type amyloid deposits"}, {"measurement": "density of exposed silver grains on amyloid deposits (emulsion autoradiography)", "setting": "[1]; equal amounts of radioactivity and exposure time (6 days), versus 125I-Aβ1-40", "value": "higher density of silver grains"}, {"measurement": "labeling of parenchymal amyloid deposits in vivo", "setting": "[2]", "value": "able to cross the BBB and bind to amyloid deposits in vivo"}, {"measurement": "amount of radiolabeled peptide present in PBS-perfused brain", "setting": "[3]", "value": 0.35, "unit": "%"}]}, {"compound": "putrescine-gadolinium-amyloid-β peptide [PUT-Gd-Aβ]", "values": [{"measurement": "exposure time required for detection of plaque binding (emulsion autoradiography)", "setting": "[5]", "value": "one"}, {"measurement": "T1 CNR (contrast-to-noise ratio)", "setting": "β-amyloid plaques; APP-PS1 mice, IV injection, T1W MRI, mean ± SEM, n = 15 plaques", "value": "7.13 ± 1.03"}, {"measurement": "T1 PBR (plaque-to-background voxel intensity ratio)", "setting": "β-amyloid plaques; APP-PS1 mice, IV injection, T1W MRI, mean ± SEM, n = 15 plaques, maximum intensity", "value": "1.24 ± 0.04"}, {"measurement": "T2 CNR (contrast-to-noise ratio)", "setting": "β-amyloid plaques; APP-PS1 mice, IV injection, T2W MRI, mean ± SEM, n = 15 plaques", "value": "−8.95"}, {"measurement": "T2 PBR (plaque-to-background voxel intensity ratio)", "setting": "β-amyloid plaques; APP-PS1 mice, IV injection, T2W MRI, mean ± SEM, n = 15 plaques, minimum intensity", "value": "0.29 ± 0.03"}, {"measurement": "fold increase of T1 CNR in injected mice", "setting": "β-amyloid plaques; APP-PS1 mice, T1 images", "value": "4.2-9.4 fold"}, {"measurement": "fold increase of T1 PBR in injected mice", "setting": "β-amyloid plaques; APP-PS1 mice, T1 images", "value": 1.2, "unit": "fold"}, {"measurement": "cortical tissue volume occupied by enhanced plaque", "setting": "β-amyloid plaques; APP-PS1 mouse, T1W, interpretation of pixel proportion", "value": "roughly 10%"}, {"measurement": "proportion of pixels within cortical ROI whose intensity exceeded the 4-S.D. threshold", "setting": "β-amyloid plaques; APP-PS1 mouse, T1W, mean (±S.D.) across 10 images, 812.5×812.5 μm ROI", "value": 9.9, "unit": "%"}, {"measurement": "T1 plaque enhancement on T1W images", "setting": "β-amyloid plaques; IV injection", "value": "many focal areas of accelerated T1 relaxation visible as bright spots"}, {"measurement": "accelerated T2 relaxation on T2W images", "setting": "β-amyloid plaques; IV injection", "value": "Numerous focal areas of accelerated T2 relaxation"}, {"measurement": "MRI features in non-transgenic mouse (focal areas of accelerated T1 relaxation)", "setting": "β-amyloid plaques; non-transgenic mouse, compared with PBS-injected non-transgenic mouse (no focal T1 areas)", "value": "yielded the same results"}]}]}
